Earlier results as cited in article PMC8650797 (The ocular surface, 2020).

System: herpes simplex virus DNA polymerase
Conditions: native peptide; ref [29] Digard et al.

## EETRRMLHRAFDTLA
  activity in blocking DNA synthesis in vitro: very poor activity
